Results as given in patent US20110136766A1, “AURORA KINASE INHIBITORS” (Vitae Pharmaceuticals, Inc., priority 2008, published 2011).
Like-named read-outs stand apart in the source and are kept apart here.

Key:
[1] = target: T1, full-length human Aurora A (Homo sapiens, UniProt O14965); assay: Aurora A phosphocellulose filter binding kinase activity assay; format: biochemical; settings: 11 nM Aurora A, 10 μM ATP, 50 μM Kemptide, 45 min; read-out: Aur-A IC50
T1 construct: The full-length human Aurora A carrying His6 tag at the N-terminus; His6 (N); purchased Invitrogen, Carlsbad, Calif
T1 sequence (O14965 1-403): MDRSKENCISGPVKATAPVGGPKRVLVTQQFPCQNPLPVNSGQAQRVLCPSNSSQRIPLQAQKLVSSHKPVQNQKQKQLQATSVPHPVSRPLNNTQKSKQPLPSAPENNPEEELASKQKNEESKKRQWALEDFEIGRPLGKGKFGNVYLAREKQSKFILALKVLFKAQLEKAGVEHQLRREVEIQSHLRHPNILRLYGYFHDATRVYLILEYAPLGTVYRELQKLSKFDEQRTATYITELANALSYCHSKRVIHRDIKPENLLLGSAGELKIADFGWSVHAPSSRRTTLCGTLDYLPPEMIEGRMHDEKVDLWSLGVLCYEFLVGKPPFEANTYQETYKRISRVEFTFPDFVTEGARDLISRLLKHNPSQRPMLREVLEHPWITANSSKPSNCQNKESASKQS
Description: (§1) Kinase activity of Aurora kinases was measured by phosphocellulose filter binding assay. The full-length human Aurora A carrying His6 tag at the N-terminus (Invitrogen, Carlsbad, Calif.) and the full-length human Aurora B (N-terminal GST fusion) co-expressed and co-purified with the His6-INCENP INBOX, aminoacids 803-918 (Carna BioSciences, Japan) were used as the enzyme in the assays. Tested compounds were diluted in DMSO and pre-incubated with the enzyme and ATP/Mg^2+ mixture for at least 10 minutes. The reaction was started by addition of the Kemptide peptide substrate (LRRASLG) and allowed to proceed for 45 min at room temperature. Each reaction in a final volume of 40 μl contained 50 μM Kemptide, 10 μM [γ-^33P]ATP (1 Ci/mmol) and either 11 nM Aurora A or 1.5 nM Aurora B/INCENP complex in the buffer containing 10 mM MgCl2, 5% DMSO, 20 mM MOPS, pH 7.2, 25 mM β-glycerol phosphate, 5 mM EGTA, 1 mM Na3VO4 and either 0.1 mg/ml of BSA and 1 mM DTT for Aurora A or 0.01% Triton-X100 and 2 mM DTT for Aurora B. The reaction was stopped with 25 μl of 5% H3PO4, and 45 μl of the mixture was transferred into a MultiScreen-PH filterplate (Millipore) pre-washed with 0.85% H3PO4. The filterplate was washed 4 times with 200 μl of 0.85% H3PO4 on a vacuum manifold. Scintillation fluid (50 μl of Ultima Gold™ LLT, PerkinElmer, Waltham, Mass.) was added to each well, and after 1-hr incubation at room temperature the plates were counted on MicroBeta (PerkinElmer, Waltham, Mass.) plate reader. […] Percent inhibition values were calculated based on the counts of the positive and negative controls, and these values were regressed against inhibitor concentration and fit into a four parameter model. From this fit the IC50 values (the inhibitor concentration at which 50% inhibition occurs) were derived as the inflection point on the semi-logarithm inhibition curve.

[2] = target: T2, full-length human Aurora B/INCENP complex (Homo sapiens, UniProt Q96GD4); assay: Aurora B phosphocellulose filter binding kinase activity assay; format: biochemical; settings: 1.5 nM Aurora B/INCENP complex, 10 μM ATP, 50 μM Kemptide, 45 min; read-out: Aur-B IC50
T2 construct: the full-length human Aurora B (N-terminal GST fusion); GST (N); purchased Carna BioSciences, Japan
Description: as §1

Colo205 = assay: CellTiter-Glo cell viability assay, Colo205; format: cell-based; settings: Homo sapiens, read-out: Colo205 IC50
From the text: (§2) The CellTiter-Glo® Luminescent Cell Viability Assay is a homogeneous method of determining the number of viable cells in culture based on quantitation of the ATP present, which signals the presence of metabolically active cells. The homogeneous assay procedure involves addition of a single reagent directly to cells cultured in serum-supplemented medium. The homogeneous format results in cell lysis and generation of a luminescent signal proportional to the amount of ATP present. The CellTiter-Glo® Assay relies on the properties of a proprietary thermostable luciferase (Ultra-Glo. Recombinant Luciferase), which generates a stable glow-type Luminescent signal. The half-life of the luminescent signal resulting from this reaction is greater than five hours. This extended half-life eliminates the need for reagent injectors and provides flexibility for continuous or batch-mode processing of multiple plates. The unique homogeneous format reduces pipetting errors that may be introduced during the multiple steps required by other ATP-measurement methods.
(§3) 96 Well cell culture plates were seeded with 10^3 mammalian cells (Colo205, HL-60, SW620, HCT116, MCF-7 and MV-411) in 100 μl culture medium. The cells were incubated overnight prior to initiating the assay. Control wells were prepared on a plate containing medium only to obtain a value for background luminescence.
(§4) Compounds to be tested were added to experimental wells and incubated for 72 hrs (Colo205, HL-60, MV-411), 168 hrs (HCT116, SW620) or 240 hrs (MCF-7). Wells were also set up to as vehicle controls with the addition of 0.1% DMSO. At the end of the incubation period, the plates were equilibrated to room temperature for approximately 30 minutes.
(§5) Lyophilized CellTiter-Glo® Substrate and the CellTiter-Glo® Buffer were warmed to room temperature. The CellTiter-Glo® Buffer was mixed with the CellTiter-Glo® Substrate to reconstitute the lyophilized enzyme/substrate mixture. This forms the CellTiter-Glo® Reagent. The contents were mixed by gently vortexing, swirling or by inverting the contents to obtain a homogeneous solution. 100 μl of CellTiter-Glo® Reagent was added to the cell culture medium present in each well. The contents were mixed for 2 minutes on an orbital shaker to induce cell lysis. The plates were allowed to incubate at room temperature for 10 minutes to stabilize luminescent signal. The contents of the 96 well cell culture plate were then transferred to a white 96 well Optiplate (Perkin Elmer). The luminescence was recorded on Wallac 1420 VICTOR^2 V Multilabel Platereader (An integration time of 0.25-1 second per well).
(§6) 10 mM DMSO stock Compounds were serially diluted threefold in DMSO. Subsequent dilutions made into cell culture media prior to addition to cells to maintain the DMSO concentration at or below 0.1% to avoid cell toxicity.
(§7) The IC50s in Table 2 are the concentration at which 50% growth inhibition relative to control occurs.

HL-60 = assay: CellTiter-Glo cell viability assay, HL-60; format: cell-based; settings: Homo sapiens, read-out: HL-60 IC50
From the text: as §2, §3, §4, §5, §6, §7

SW620 = assay: CellTiter-Glo cell viability assay, SW620; format: cell-based; settings: Homo sapiens, read-out: SW620 IC50
From the text: as §2, §3, §4, §5, §6, §7

HCT116 = assay: CellTiter-Glo cell viability assay, HCT116; format: cell-based; settings: Homo sapiens, read-out: HCT116 IC50
From the text: as §2, §3, §4, §5, §6, §7

MCF-7 = assay: CellTiter-Glo cell viability assay, MCF-7; format: cell-based; settings: Homo sapiens, read-out: MCF-7 IC50
From the text: as §2, §3, §4, §5, §6, §7

MV-411 = assay: CellTiter-Glo cell viability assay, MV-411; format: cell-based; settings: Homo sapiens, read-out: MV-411 IC50
From the text: as §2, §3, §4, §5, §6, §7

[3] = COLO 205, Colorectal cancer, 72 hrs, 50% growth inhibition relative to control
[4] = HL-60, Leukemia, 72 hrs, 50% growth inhibition relative to control
[5] = SW-620, Colorectal cancer, 168 hrs, 50% growth inhibition relative to control
[6] = HCT-116, Colorectal cancer, 168 hrs, 50% growth inhibition relative to control
[7] = MCF7, Breast Cancer, 240 hrs, 50% growth inhibition relative to control
[8] = MV4-11, Leukemia, 72 hrs, 50% growth inhibition relative to control

T2 sequence (Q96GD4 whole entry, the tested form may be a part): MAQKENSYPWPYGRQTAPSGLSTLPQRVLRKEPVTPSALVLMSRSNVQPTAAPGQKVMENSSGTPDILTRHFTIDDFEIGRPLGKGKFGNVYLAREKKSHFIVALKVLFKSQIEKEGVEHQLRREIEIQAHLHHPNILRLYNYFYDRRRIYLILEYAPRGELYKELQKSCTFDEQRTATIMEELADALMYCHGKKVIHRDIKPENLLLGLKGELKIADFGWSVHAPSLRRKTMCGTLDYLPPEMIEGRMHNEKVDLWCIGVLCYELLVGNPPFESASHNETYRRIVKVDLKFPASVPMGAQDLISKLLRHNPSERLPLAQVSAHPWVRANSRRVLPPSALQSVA
T2 sequence (Q9NQS7 803-918 partner limits assumed): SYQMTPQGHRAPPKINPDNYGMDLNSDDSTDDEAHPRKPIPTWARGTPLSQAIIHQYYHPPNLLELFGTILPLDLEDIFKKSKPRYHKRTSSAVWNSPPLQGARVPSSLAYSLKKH

Row | Compound | IC50 [1] | IC50 [2] | IC50 (Colo205; [3]) | IC50 (HL-60; [4]) | IC50 (SW620; [5]) | IC50 (HCT116; [6]) | IC50 (MCF-7; [7]) | IC50 (MV-411; [8]) | IC50 (Colo205; COLO 205, 72 h) | IC50 (HL-60; HL-60, 72 h) | IC50 (SW620; SW-620, 168 h) | IC50 (HCT116; HCT-116, 168 h) | IC50 (MCF-7; MCF7, 240 h) | IC50 (MV-411; MV4-11, 72 h)
1 | O=C(Cc1cc(Nc2ncnc3cc(-c4ccc(C(=O)N5CCNCC5)cc4)ccc23)n[nH]1)Nc1cccc(F)c1 [Compound 4, N-(3-fluorophenyl)-2-(3-(7-(4-(piperazine-1-carbonyl)phenyl)quinazolin-4-ylamino)-1H-pyrazol-5-yl)acetamide] | 3.77 nM | 0.71 nM | 2.11 nM | 1.32 nM | 7.81 nM | 5.66 nM | 7.7 nM | 6.05 nM | – | – | – | – | – | –
2 | CCN(CCO)CCCOc1ccc2c(Nc3cc(CC(=O)Nc4cccc(F)c4)[nH]n3)ncnc2c1 [AZD1152HQPA, reference compound] | – | – | – | – | – | – | – | – | 23 nM | 7.16 nM | 20.9 nM | 14.3 nM | 60.7 nM | 16.5 nM
3 | O=C(Cc1cc(Nc2ncnc3cc(-c4ccc(C(=O)N5CCN(CCO)CC5)cc4)ccc23)n[nH]1)Nc1cccc(F)c1 [Compound 1, N-(3-fluorophenyl)-2-(3-(7-(4-(4-(2-hydroxyethyl)piperazine-1-carbonyl)phenyl)quinazolin-4-ylamino)-1H-pyrazol-5-yl)acetamide] | 1.93 nM | 0.48 nM | 1.82 nM | 1.32 nM | 12 nM | 5.32 nM | 16.9 nM | 5.75 nM | – | – | – | – | – | –
4 | Cc1cc(Nc2cc(N3CCN(C)CC3)nc(Sc3ccc(NC(=O)C4CC4)cc3)n2)n[nH]1 [VX-680, reference compound] | – | – | – | – | – | – | – | – | 30.2 nM | 13.8 nM | 21.8 nM | 18 nM | 31 nM | 79 nM
5 | CC(=O)O[C@H]1C(=O)[C@@]2(C)[C@H]([C@H](OC(=O)c3ccccc3)[C@]3(O)C[C@H](OC(=O)[C@H](O)[C@@H](NC(=O)c4ccccc4)c4ccccc4)C(C)=C1C3(C)C)[C@]1(OC(C)=O)CO[C@@H]1C[C@@H]2O [Taxol, reference compound] | – | – | 2.54 nM | 2.16 nM | 4.91 nM | 2.04 nM | 0.58 nM | 6.2 nM | – | – | – | – | – | –
6 | O=C(Cc1cc(Nc2ncnc3cc(-c4ccc(S(=O)(=O)N5CC[C@H](F)C5)cc4)ccc23)n[nH]1)Nc1cccc(F)c1 [Compound 5, (S)-N-(3-fluorophenyl)-2-(3-(7-(4-(3-fluoropyrrolidin-1-ylsulfonyl)phenyl)quinazolin-4-ylamino)-1H-pyrazol-5-yl)acetamide] | 7.1 nM | 0.56 nM | 3.86 nM | 1.21 nM | 2.17 nM | 1.9 nM | 11.4 nM | 6.4 nM | – | – | – | – | – | –
7 | O=C(Cc1cc(Nc2ncnc3cc(-c4ccc(S(=O)(=O)N5CC[C@@H](F)C5)cc4)ccc23)n[nH]1)Nc1cccc(F)c1 [Compound 6, (R)-N-(3-fluorophenyl)-2-(3-(7-(4-(3-fluoropyrrolidin-1-ylsulfonyl)phenyl)quinazolin-4-ylamino)-1H-pyrazol-5-yl)acetamide] | 6.29 nM | 0.63 nM | 3.9 nM | 2.26 nM | 2.4 nM | 1.9 nM | 7.8 nM | 5.79 nM | – | – | – | – | – | –
8 | CN1CCN(C(=O)c2ccc(-c3ccc4c(Nc5cc(CC(=O)Nc6cccc(F)c6)[nH]n5)ncnc4c3)cc2)CC1 [Compound 2, N-(3-fluorophenyl)-2-(3-(7-(4-(4-methylpiperazine-1-carbonyl)phenyl)quinazolin-4-ylamino)-1H-pyrazol-5-yl)acetamide] | 5.07 nM | 0.86 nM | 3.98 nM | 1.8 nM | 6.3 nM | 3.65 nM | 8.46 nM | 5.2 nM | – | – | – | – | – | –
9 | O=C(Cc1cc(Nc2ncnc3cc(-c4ccc(S(=O)(=O)N5CCCC5)cc4)ccc23)n[nH]1)Nc1cccc(F)c1 [Compound 3, N-(3-fluorophenyl)-2-(3-(7-(4-(pyrrolidin-1-ylsulfonyl)phenyl)quinazolin-4-ylamino)-1H-pyrazol-5-yl)acetamide] | 6.04 nM | 0.47 nM | 2.26 nM | 1.08 nM | 2.15 nM | 4.58 nM | 5.62 nM | 5.9 nM | – | – | – | – | – | –
